Reference: patent US8940766B2, “Methods for preventing and/or treating lysosomal storage disorders” (Amicus Therapeutics, Inc., priority 2009, dated 2015)

Key:
[1] = molecular target: T1, recombinant human GCase (rhGCase; Cerezyme®) (Homo sapiens, UniProt P04062, R534H); assay: In vitro enzyme inhibition assay of rhGCase with 4-MU-β-D-Glc fluorogenic substrate; type: biochemical; settings: pH 5.2; average of three independent experiments
T1 construct: purchased Genzyme Corp
T1 sequence (P04062 40-536 R534H): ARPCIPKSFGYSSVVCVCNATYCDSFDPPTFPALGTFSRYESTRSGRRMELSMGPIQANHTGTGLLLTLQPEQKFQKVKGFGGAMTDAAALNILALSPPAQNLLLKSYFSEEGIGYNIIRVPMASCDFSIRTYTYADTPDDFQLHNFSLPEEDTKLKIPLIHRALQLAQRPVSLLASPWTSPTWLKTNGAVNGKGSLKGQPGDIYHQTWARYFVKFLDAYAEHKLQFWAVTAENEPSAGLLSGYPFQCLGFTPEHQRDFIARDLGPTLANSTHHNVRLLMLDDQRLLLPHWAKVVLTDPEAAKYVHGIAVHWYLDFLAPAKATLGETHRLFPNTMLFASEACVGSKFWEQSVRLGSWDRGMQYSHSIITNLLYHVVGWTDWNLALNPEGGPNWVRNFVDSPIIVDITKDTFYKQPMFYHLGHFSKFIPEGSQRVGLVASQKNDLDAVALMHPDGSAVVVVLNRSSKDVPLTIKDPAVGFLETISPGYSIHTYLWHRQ
Method: The binding affinity (defined here by Ki binding constant) of GCase for small molecule pharmacological chaperones described in this document were empirically determined using enzyme inhibition assays. In brief, the enzyme inhibition assays used monitored the ability of test compound to bind and prevent the hydrolysis of a fluorogenic substrate in a concentration-dependent manner. Specifically, the enzyme activity of recombinant human GCase (rhGCase; Cerezyme®, Genzyme Corp.) was measured using the 4-methylumbelliferyl-β-D-glucopyranoside (4-MU-β-D-Glc) fluorogenic substrate in the absence or in the presence of varying amounts of each test compound. […] The enzyme inhibition assays were performed at both pH 7.0 (endoplasmic reticulum pH) and at pH 5.2 (lysosomal pH) to gain insight into the binding affinity (i.e., potency) of compounds for GCase in the endoplasmic reticulum and lysososome.
Various concentrations of test compounds were prepared in buffer “M” consisting of 50 mM sodium phosphate buffer with 0.25% sodium taurocholate at pH 7.0 and pH 5.2. Enzyme (Cerezyme®, a recombinant form of the human enzyme β-glucocerebrosidase) was also diluted in the same buffer “M” at pH 7.0 and pH 5.2. […] Fluorescence was measured on a plate reader for 1 sec/well using 355 nm excitation and 460 nm emission.

[2] = molecular target: T2, GCase (Mus musculus, UniProt P17439); assay: GCase enhancement in tissues of orally dosed mice; type: in vivo, mice (C57BL/6); settings: for GCase increase: nine doses over 2 weeks, 24-hour washout
T2 construct: Liver, spleen, lung, and brain tissues were removed; from tissue; host or cells: brain, spleen, liver, lung of C57BL/6 mice
T2 sequence (P17439 20-515): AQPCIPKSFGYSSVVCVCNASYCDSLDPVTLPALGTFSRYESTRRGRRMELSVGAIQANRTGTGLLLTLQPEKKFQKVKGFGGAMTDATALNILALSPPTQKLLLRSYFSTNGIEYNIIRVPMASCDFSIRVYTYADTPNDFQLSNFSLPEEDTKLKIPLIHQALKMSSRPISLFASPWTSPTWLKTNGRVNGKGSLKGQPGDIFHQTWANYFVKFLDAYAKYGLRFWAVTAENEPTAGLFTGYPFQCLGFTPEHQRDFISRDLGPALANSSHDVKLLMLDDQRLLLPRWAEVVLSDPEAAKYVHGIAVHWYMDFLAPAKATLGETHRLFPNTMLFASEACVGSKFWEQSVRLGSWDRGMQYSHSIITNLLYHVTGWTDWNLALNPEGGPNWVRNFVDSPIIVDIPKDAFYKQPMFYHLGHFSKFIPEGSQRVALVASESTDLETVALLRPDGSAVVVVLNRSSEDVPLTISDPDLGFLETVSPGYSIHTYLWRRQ
Method: (§1) The ability of orally administered test compounds (the hydrochloride salt form of Compound A and Compound B) to elevate GCase levels as compared to reference compound, IFG-tartrate, was assessed in mice. […] Seven animals were used per dose. The dosing solutions were prepared in water. Compounds were administered over 2 weeks as follows: week 1, Mon-Fri (On), Sat-Sun (Off); week 2, Mon-Thu (On); necropsy on Friday. Thus, a total of 9 doses (dosing solutions prepared fresh every day) were given to each mouse, with a 24-hour washout between the last dose and necropsy.
(§2) Plasma was collected by spinning blood at 2700 g for 10 minutes at 4° C. Liver, spleen, lung, and brain tissues were removed, washed in cold PBS, blotted dry, flash frozen on dry ice, and stored at −80° C. until analysis. GCase levels were measured by homogenizing approximately 50 mg tissue in 500 μL McIlvane (MI) buffer (100 mM sodium citrate, 200 mM sodium phosphate dibasic, 0.25% sodium taurocholate, and 0.1% Triton X-100, pH 5.2) at pH 5.2 for 3-5 seconds on ice with a micro homogenizer. Homogenates were then incubated at room temperature without and with 2.5 mM conduritol-B-epoxide (CBE) for 30 min. Finally, 3.7 mM 4-methylumbeliferryl-β-glucoside (4-MUG) substrate was added and incubated at 37° C. for 60 min. Reactions were stopped by addition of 0.4 M glycine, pH 10.6. Fluorescence was measured on a plate reader for 1 sec/well using 355 nm excitation and 460 nm emission. Total protein was determined in lysates using the MicroBCA kit according to the manufacturer's instructions. A 4-methylumbelliferone (4-MU) standard curve ranging from 1.0 nM to 50 μM was run in parallel for conversion of raw fluorescence data to absolute GCase activity (in the presence and absence of CBE) and expressed as nanomoles of 4-MU released per milligram of protein per hour (nmol/mg protein/hr). GCase levels and protein levels were calculated using Microsoft Excel (Redmond, Wash.) and GraphPad Prism version 4.02.

[3] = Compound concentration in brain, spleen and plasma samples of GCase enhancement study; type: in vivo, mice (C57BL/6); settings: nine doses
Method: as §1, §2

[4] = mice, nine p.o. doses over 2 weeks, result in words

IC50 [1]: 0.073 ± 0.009 µM | GCase increase ([2]; brain, 10 mg/kg (free base equivalent) p.o.): 2.3 -fold | GCase increase ([2]; brain, 100 mg/kg (free base equivalent) p.o.): 3.5 -fold | GCase increase ([2]; spleen, 10 mg/kg (free base equivalent) p.o.): 1.4 -fold | GCase increase ([2]; spleen, 100 mg/kg (free base equivalent) p.o.): 2.2 -fold | Concentration in GCase assays after dilution (value in parenthesis) ([3]; brain sample, 10 mg/kg p.o.): 0.9 nM | Concentration in GCase assays after dilution (value in parenthesis) ([3]; brain sample, 100 mg/kg p.o.): 7.6 nM | Concentration in GCase assays after dilution (value in parenthesis) ([3]; spleen sample, 10 mg/kg p.o.): 2.4 nM | Concentration in GCase assays after dilution (value in parenthesis) ([3]; spleen sample, 100 mg/kg p.o.): 8 nM
SMILES: O[C@@H]1[C@@H](CCl)CNC[C@H]1O [Compound B, (3R,4R,5S)-5-(chloromethyl)piperidine-3,4-diol]
GCase enhancement at lower doses compared to IFG-tartrate [2, 4]: unexpectedly greater than that observed with IFG-tartrate even when far lower doses | GCase enhancement in brain, spleen, liver and lung compared to control or IFG-tartrate [2, 4]: statistically significant greater GCase enhancement in brain, spleen, liver and lung as compared to mice administered control or IFG-tartrate
